Measured values reported in patent US20260285850A1, “SUBSTITUTED OXAZOLIDINONES AND IMIDAZOLINONES AS HERBICIDES” (FMC CORPORATION, priority 2023, published 2026).

Assays:
Type in all cases: in vivo
[1] = system: blackgrass (Alopecurus myosuroides); test: Test A preemergence soil spray, visual injury rating 0-100; conditions: 10 days, 0 = no effect, 100 = complete control
How it was run: (§1)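 Compounds formulated in a non-phytotoxic solvent with surfactant are sprayed onto soil of freshly planted loam-sand pots ahead of emergence, or onto emerged plants 2-10 cm tall. After a 10-day greenhouse period, each species is scored visually for injury against untreated controls.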

[2] = system: goosegrass (Eleusine indica); test: as above; conditions: 10 days, 0 = no effect, 100 = complete control
How it was run: as §1

[3] = system: oat, wild (wild oat, Avena fatua); test: as above; conditions: 10 days, 0 = no effect, 100 = complete control
How it was run: as §1

[4] = system: kochia (Bassia scoparia); test: as above; conditions: 10 days, 0 = no effect, 100 = complete control
How it was run: as §1

[5] = system: foxtail, giant (giant foxtail, Setaria faberi); test: as above; conditions: 10 days, 0 = no effect, 100 = complete control
How it was run: as §1

[6] = system: ryegrass, Italian (italian ryegrass, Lolium multiflorum); test: as above; conditions: 10 days, 0 = no effect, 100 = complete control
How it was run: as §1

[7] = system: wheat (Triticum aestivum); test: as above; conditions: 10 days, 0 = no effect, 100 = complete control
How it was run: as §1

[8] = system: soybean (Glycine max); test: as above; conditions: 10 days, 0 = no effect, 100 = complete control
How it was run: as §1

[9] = system: corn (Zea mays); test: as above; conditions: 10 days, 0 = no effect, 100 = complete control
How it was run: as §1

[10] = system: ragweed (common ragweed, Ambrosia artemisiifolia); test: as above; conditions: 10 days, 0 = no effect, 100 = complete control
How it was run: as §1

[11] = system: palmer (palmer amaranth, palmer pigweed, Amaranthus palmeri); test: as above; conditions: 10 days, 0 = no effect, 100 = complete control
How it was run: as §1

[12] = system: blackgrass (Alopecurus myosuroides); test: Test A postemergence application, visual injury rating 0-100; conditions: Postemergence, 10 days, 0 is no effect, 100 is complete control
How it was run: as §1

[13] = system: horseweed (Erigeron canadensis); test: as above; conditions: Postemergence, 10 days, 0 is no effect, 100 is complete control
How it was run: as §1

[14] = system: goosegrass (Eleusine indica); test: as above; conditions: 10 days, 0 is no effect, 100 is complete control
How it was run: as §1

[15] = system: oat, wild (wild oat, Avena fatua); test: as above; conditions: Postemergence, 10 days, 0 is no effect, 100 is complete control
How it was run: as §1

[16] = system: galium (catchweed bedstraw, Galium aparine); test: as above; conditions: Postemergence, 10 days, 0 is no effect, 100 is complete control
How it was run: as §1

[17] = system: kochia (Bassia scoparia); test: as above; conditions: Postemergence, 10 days, 0 is no effect, 100 is complete control
How it was run: as §1

[18] = system: foxtail, giant (giant foxtail, Setaria faberi); test: as above; conditions: 10 days, 0 is no effect, 100 is complete control
How it was run: as §1

[19] = system: ryegrass, Italian (italian ryegrass, Lolium multiflorum); test: as above; conditions: Postemergence, 10 days, 0 is no effect, 100 is complete control
How it was run: as §1

[20] = system: wheat (Triticum aestivum); test: as above; conditions: Postemergence, 10 days, 0 is no effect, 100 is complete control
How it was run: as §1

[21] = system: soybean (Glycine max); test: as above; conditions: Postemergence, 10 days, 0 is no effect, 100 is complete control
How it was run: as §1

[22] = system: corn (Zea mays); test: as above; conditions: Postemergence, 10 days, 0 is no effect, 100 is complete control
How it was run: as §1

[23] = system: ragweed (common ragweed, Ambrosia artemisiifolia); test: as above; conditions: Postemergence, 10 days, 0 is no effect, 100 is complete control
How it was run: as §1

[24] = system: palmer (palmer amaranth, palmer pigweed, Amaranthus palmeri); test: as above; conditions: Postemergence, 10 days, 0 is no effect, 100 is complete control
How it was run: as §1

Structure (SMILES): CONC(=O)C1C=CC(NC(=O)C2(C)CN(c3cc(F)cc(F)c3)C(=O)O2)C1 (stereo not drawn) [Compound 25]
- Blackgrass plant response rating (0 to 100 scale) ([1]; 125 g ai/ha): 40
- Blackgrass plant response rating (0 to 100 scale) ([1]; 500 g ai/ha): 90
- Goosegrass plant response rating (0 to 100 scale) ([2]; 125 g ai/ha): 30
- Goosegrass plant response rating (0 to 100 scale) ([2]; 500 g ai/ha): 100
- Oat, Wild plant response rating (0 to 100 scale) ([3]; 125 g ai/ha): 80
- Oat, Wild plant response rating (0 to 100 scale) ([3]; 500 g ai/ha): 90
- Kochia plant response rating (0 to 100 scale) ([4]; 125 g ai/ha): 30
- Kochia plant response rating (0 to 100 scale) ([4]; 500 g ai/ha): 90
- Foxtail, Giant plant response rating (0 to 100 scale) ([5]; 125 g ai/ha): 20
- Foxtail, Giant plant response rating (0 to 100 scale) ([5]; 500 g ai/ha): 90
- Ryegrass, Italian plant response rating (0 to 100 scale) ([6]; 125 g ai/ha): 60
- Ryegrass, Italian plant response rating (0 to 100 scale) ([6]; 500 g ai/ha): 90
- Wheat plant response rating (0 to 100 scale) ([7]; 125 g ai/ha): 60
- Wheat plant response rating (0 to 100 scale) ([7]; 500 g ai/ha): 100
- Soybean plant response rating (0 to 100 scale) ([8]; 125 g ai/ha): 0
- Soybean plant response rating (0 to 100 scale) ([8]; 500 g ai/ha): 70
- Corn plant response rating (0 to 100 scale) ([9]; 125 g ai/ha): 50
- Corn plant response rating (0 to 100 scale) ([9]; 500 g ai/ha): 90
- Ragweed plant response rating (0 to 100 scale) ([10]; 125 g ai/ha): 0
- Ragweed plant response rating (0 to 100 scale) ([10]; 500 g ai/ha): 30
- Amaranth, Palmer plant response rating (0 to 100 scale) ([11]; 125 g ai/ha): 10
- Amaranth, Palmer plant response rating (0 to 100 scale) ([11]; 500 g ai/ha): 80
- Blackgrass plant response rating (0 to 100 scale) ([12]; 125 g ai/ha): 80
- Blackgrass plant response rating (0 to 100 scale) ([12]; 500 g ai/ha): 90
- Horseweed plant response rating (0 to 100 scale) ([13]; 125 g ai/ha): 60
- Horseweed plant response rating (0 to 100 scale) ([13]; 500 g ai/ha): 80
- Goosegrass plant response rating (0 to 100 scale) ([14]; 125 g ai/ha): 90
- Goosegrass plant response rating (0 to 100 scale) ([14]; 500 g ai/ha): 90
- Oat, Wild plant response rating (0 to 100 scale) ([15]; 125 g ai/ha): 90
- Oat, Wild plant response rating (0 to 100 scale) ([15]; 500 g ai/ha): 100
- Galium plant response rating (0 to 100 scale) ([16]; 125 g ai/ha): 80
- Galium plant response rating (0 to 100 scale) ([16]; 500 g ai/ha): 80
- Kochia plant response rating (0 to 100 scale) ([17]; 125 g ai/ha): 80
- Kochia plant response rating (0 to 100 scale) ([17]; 500 g ai/ha): 90
- Foxtail, Giant plant response rating (0 to 100 scale) ([18]; 125 g ai/ha): 90
- Foxtail, Giant plant response rating (0 to 100 scale) ([18]; 500 g ai/ha): 90
- Ryegrass, Italian plant response rating (0 to 100 scale) ([19]; 125 g ai/ha): 60
- Ryegrass, Italian plant response rating (0 to 100 scale) ([19]; 500 g ai/ha): 60
- Wheat plant response rating (0 to 100 scale) ([20]; 125 g ai/ha): 80
- Wheat plant response rating (0 to 100 scale) ([20]; 500 g ai/ha): 80
- Soybean plant response rating (0 to 100 scale) ([21]; 125 g ai/ha): 70
- Soybean plant response rating (0 to 100 scale) ([21]; 500 g ai/ha): 80
- Corn plant response rating (0 to 100 scale) ([22]; 125 g ai/ha): 100
- Corn plant response rating (0 to 100 scale) ([22]; 500 g ai/ha): 100
- Ragweed plant response rating (0 to 100 scale) ([23]; 125 g ai/ha): 60
- Ragweed plant response rating (0 to 100 scale) ([23]; 500 g ai/ha): 80
- Amaranth, Palmer / Pigweed, Palmer plant response rating (0 to 100 scale) ([24]; 125 g ai/ha): 90
- Amaranth, Palmer / Pigweed, Palmer plant response rating (0 to 100 scale) ([24]; 500 g ai/ha): 90
